Measurements: patent US6867179B1, “Methods of inducing hair growth and coloration” (Trustees of Boston University, priority 1994, dated 2005)
Entries after “also recorded” stand apart in the source; their conditions may differ.

Assays:
melanocytes = assay: Apoptosis (propidium iodide-positive nuclei) in UV-irradiated melanocytes; format: cell-based, human; conditions: UV 10 mJ/cm^2, 50 ng/ml NGF, 24 hours after irradiation; diluent about 30%
Experimental: To determine if melanocyte apoptosis is mediated by p75 NGF-R, cultures were treated as above, and then incubated in the presence of a blocking anti-human p75 NGF-R monoclonal antibody believed to act as a pseudo-ligand for the p75 NGF-R. (Anti-human p75 NGF-R monoclonal antibody courtesy of Moses V. Chao, Cornell University Medical Center, New York, N.Y.; Ross, et al., Proc. Natl. Acad. Sci. 81:6681 (1984)).
Melanocytes were cultured on 8 chamber tissue culture slides (Nunc Inc., Naperville, Ill.) and were UV irradiated with 10 mJ/cm^2 as above. Four microM of propidium iodide (PI) was added to melanocyte cultures 24 hours after irradiation, for 5 minutes at […]. Cultures were washed with PBS and nuclei were analyzed using a Leitz confocal laser microscope (Leica, Deerfield, Ill.).
Melanocytes were sham or UV irradiated with 10 mJ/cm^2 and 25 mJ/cm^2. Twenty-four hours after irradiation, […] of propidium iodide was added to cultures as above and cells were viewed with fluorescent phase contrast Nikon microscope. The number of fragmented or homogeneously stained nuclei versus nonstained nuclei was determined in several representative fields and expressed as a percent of total cells. A minimum of 130 cells were counted for each condition.
Melanocytes were irradiated with 10 mJ/cm^2 or were sham irradiated as in Example 1 and then provided 50 ng/ml NGF or diluent alone. […]

p75 NGF-R = assay: Northern blot of p75 NGF-R mRNA in NGF-supplemented melanocytes; format: cell-based, human
MM4 cells = assay: DNA fragmentation (DNA ladder) after UV irradiation, FIG. 3A; format: cell-based, human; conditions: 50 ng/ml NGF, 24 hours after UV irradiation
Experimental: Cells in 100 mm tissue culture dishes were washed with cold PBS and disrupted in lysis buffer pH8 (10 mM tris, 150 mM NaCl, 0.1 mM EDTA, 1% SDS, 200 µg/ml proteinase K). After 15 hour incubation at […], samples were extracted twice with phenol plus chloroform (1:1, V/V) and precipitated overnight with ethanol (2.5×volume) and 3 M sodium acetate (1/10×volume). The DNA was then digested with DNAse free ribonuclease ([…]) for one hour at […], separated on 1% agarose gel and stained with ethidium bromide. The size marker is 100 bp DNA ladder (STD) (Gibco/BRL, Gaithersburg, Md.).
Melanocytes or MM4 cells were plated as described in Example 1. After irradiation, melanocytes were maintained in basal melanocyte medium lacking FBS and hydrocortisone, with 50 ng/ml NGF or diluent alone (melanocyte medium). MM4 cells were maintained in DME supplemented with 50 ng/ml NGF or diluent alone.
The standard (STD) is 100 bp DNA ladder (Gibco/BRL). (See FIG. 3A).

p75^NTR = target: T1, p75^NTR (Homo sapiens, UniProt P08138); assay: Competition for 125I beta-amyloid 1-40 binding to p75NTR-NIH 3T3 cells; parameters: expressed in transfected cells; host or cells: NIH 3T3 fibroblasts (p75^NTR NIH 3T3 cells, Dobrowsky et al. 1994)
T1 sequence (P08138 29-427): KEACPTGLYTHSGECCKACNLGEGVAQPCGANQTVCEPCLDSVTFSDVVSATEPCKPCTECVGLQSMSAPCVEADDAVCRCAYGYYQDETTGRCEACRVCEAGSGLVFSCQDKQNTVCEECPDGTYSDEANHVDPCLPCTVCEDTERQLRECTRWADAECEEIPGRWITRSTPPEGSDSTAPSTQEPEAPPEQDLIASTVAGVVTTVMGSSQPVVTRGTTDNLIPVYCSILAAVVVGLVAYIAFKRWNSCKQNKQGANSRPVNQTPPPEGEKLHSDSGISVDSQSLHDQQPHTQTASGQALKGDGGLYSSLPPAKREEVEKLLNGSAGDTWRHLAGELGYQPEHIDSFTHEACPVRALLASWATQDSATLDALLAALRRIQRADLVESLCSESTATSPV
Experimental: p75^NTR-NIH 3T3 cells were maintain in DMEM supplemented with 10% FBS in the presence of penicillin (45 ng/ml), streptomycin (68 ng/ml), and hygromycin B (17.5 ng/ml). […] After incubation, 1 mM of disuccinimidyl suberate was added for 30 minutes. Following centrifugation cells were lysed with RIPA buffer (50 mM Tris HCl, pH 8.0, […] NaCl 0.5% sodium deoxycholate 4, 5 mM MgCl2, 1% Triton x-100, 1 mM phenylmethylsulfonylfluoride [PMSF], and 1 microg/ml aprotinin), sonicated for 1-3 seconds and immunoprecipitated with anti p75^NTR antibodies (mouse monoclonal IgG1, Cedarlane Laboratories Ltd., Ontario, Canada) or mouse IgG as control for 16 hours at […] in the presence of 15 microl of protein G plus protein A agarose and 1M NaCl adjusted to pH 8.0. After several washes with 20 mM Tris HCl, pH 8.0, 1M NaCl, 5 mM MgCl2, 0.2% Triton X-100 and 1 mM PMSF, immunoprecipitates were separated over 8% PAGE and subjected to autoradiography. A band of 75-80 kD molecular weight was present only in lysates inmmunoprecipitated with anti p75^NTR antibodies and not lysates inmmunoprecipitated with irrelevant mouse IgG.
p75^NTR-NIH 3T3 cells were incubated for 2 hours at […] in binding medium (DMEM, 10 mM hepes, 0.1 mg/ml cytochrome C, 0.01% Tween 80, 1 mg/ml BSA) with ^125I beta-amyloid 1-40 and increasing concentrations of NGF (0-100 ng/ml). […]

Substance: NGF: nerve growth factor, neurotrophin ligand of p75 NGF-R and trk
- Nuclei showing fragmentation (propidium iodide positive) (melanocytes): 12%
- p75 NGF-R mRNA transcript levels versus diluent controls (p75 NGF-R): several-fold higher
- DNA fragmentation after UV irradiation (MM4 cells): not fragmented; also recorded: far less fragmentation
- Competition with beta-amyloid for p75NTR binding (p75^NTR): could be competed off by NGF
- Maximum inhibition of 125I beta-amyloid binding (p75^NTR; NGF 100 ng/ml, 2 hours): 38%
